{"source": "patent US20120232025A1", "about": "“SAFENER DRUG COMBINATIONS FOR USE WITH NMDA […]” (priority 2010, published 2012)", "key": {"[1]": {"system": "neurotoxic side effects of MK-801 or phencyclidine", "assay": "safener protection against neurotoxic side effects (vacuole formation) of NMDA antagonists", "format": "in vivo, rat"}, "[2]": {"system": "neurotoxic side effects of MK-801 or phencyclidine", "conditions": "cited from earlier work"}, "[3]": {"system": "depressive symptoms", "conditions": "cited from earlier work"}, "[4]": {"system": "excitotoxic neurodegeneration", "assay": "standard animal models of excitotoxic neurodegeneration", "format": "in vivo", "conditions": "only at very high doses that cause severe functional and behavioral disturbances", "text": "However, it may well be that such concerns, by the Applicants, are not especially serious or acute, in view of the relatively low dosages of memantine that are actually being administered to Alzheimer patients. The Applicants have tested memantine, in animals, to measure and quantify its ability to protect against excitotoxic neurodegeneration, using several standard animal models that are used to test and measure excitotoxic neurodegeneration. […] Therefore, it is very unlikely that memantine is being administered, to Alzheimer patients, at dosages that are actually high enough to prevent excitotoxic neurodegeneration, since the dosages being used in human patients are not causing the types of observable functional disturbances that have been seen when anti-excitotoxic dosages are administered."}, "[5]": {"system": "Alzheimer's disease", "conditions": "cited from earlier work"}, "[6]": {"system": "psychotomimetic effects", "conditions": "cited from earlier work"}, "[7]": {"system": "neuropathic pain", "conditions": "cited from earlier work"}, "[8]": {"conditions": "as an anesthetic; cited from earlier work"}, "[9]": {"system": "cerebrocortical neurons", "assay": "vacuole formation / neurotoxic damage in rat brain after NMDA antagonist administration", "conditions": "for vacuole-forming ED100 dosage: intraperitoneal injection, aging female rats, vacuole response in 100% of animals; for potency relative to MK-801 (from ED100 numbers): vacuole formation / NMDA receptor blocker ranking, fraction of MK-801 potency", "text": "First, that dosage is based on intraperitoneal injection. […] This is a simple, quick, and convenient mode of injection, and it is widely used in research. If desired, intravenous injection in rats can be performed by using the tail vein, but that is slower, more tedious, more difficult, and more prone to experimental error.\nThis runs contrary to most types of drug tests on rats, in which females tend to be avoided, because of potentially uncontrolled variables created by reproductive hormones. Most female rats that have been used, in tests done to date, are retired breeders, with ages of about 7 months or more.\nFor convenience, to avoid having to use subscript fonts or notations, terms such as […] also can be written as ED-100, or simply as […].\nWhenever a term such as ED100 is being used, it requires an understanding of any essential factors that should be known by any researchers who might try to perform similar tests. In this situation, researchers would need to know the route of administration (intraperitoneal injection), and the types of animals used to determine the ED100 level (i.e., aging female rats)."}, "[10]": {"system": "cerebrocortical neurons", "conditions": "rats, persistent administration of the NMDA antagonist; cited from earlier work"}, "[11]": {"system": "neuropathic pain", "conditions": "cited from earlier work", "remark": "listed apart in the source"}, "[12]": {"system": "neuropathic pain", "assay": "animal models of neuropathic pain", "format": "in vivo"}}, "note": "Like-named read-outs stand apart in the source and are kept apart here.", "data": [{"smiles": "O=C(CCCN1CCC(O)(c2ccc(Cl)cc2)CC1)c1ccc(F)cc1", "note": "[haloperidol]", "values": [{"measurement": "prevention of NMDA antagonist-induced vacuole formation", "setting": "[1]; test animals, given at the same time as the NMDA antagonist, clinically relevant dosages", "value": "could not prevent"}, {"measurement": "safening potency compared with sigma-selective drugs", "setting": "[2]; required substantially higher dosages", "value": "not as potent or effective"}]}, {"smiles": "CC12CC3CC(C)(C1)CC(N)(C3)C2", "note": "[memantine]", "values": [{"measurement": "improvement in depressive symptoms", "setting": "[3]; 20 mg/day, 8 weeks, severe chronic depression (Zarate et al 2006a)", "value": "no signs of improvement"}, {"measurement": "protection against excitotoxic damage", "setting": "[4]", "value": "some level of protection against excitotoxic damage"}, {"measurement": "further deterioration of cognitive function", "setting": "[5]; Alzheimer patients", "value": "did not prevent further deterioration"}, {"measurement": "global assessment of cognition and ability to manage daily activities", "setting": "[5]; low dose, middle-stage Alzheimer patients", "value": "transient and slight improvements"}]}, {"smiles": "Clc1cccc(Cl)c1N=C1NCCN1", "note": "[clonidine]", "values": [{"measurement": "neurotoxic effects of NMDA antagonists in animals", "setting": "[2]", "value": "suppressed or prevented"}, {"measurement": "psychotomimetic effects of NMDA antagonists in humans", "setting": "[6]", "value": "suppressed or prevented"}, {"measurement": "effect on MK-801's neuropathic pain-relieving activity", "setting": "[7]; administered together with MK-801", "value": "potentiates"}, {"measurement": "neuropathic pain relieving activity", "setting": "[7]; alone", "value": "neuropathic pain relieving activity"}]}, {"smiles": "CN[C@]1(c2ccccc2Cl)CCCCC1=O", "note": "[S-ketamine]", "values": [{"measurement": "anesthetic potency relative to R-ketamine", "setting": "[8]", "value": "about twice as potent"}]}, {"smiles": "c1ccc(C2(N3CCCCC3)CCCCC2)cc1", "note": "[phencyclidine]", "values": [{"measurement": "vacuole-forming ED100 dosage", "setting": "[9]", "value": 4.0, "unit": "mg/kg"}, {"measurement": "potency relative to MK-801 (from ED100 numbers)", "setting": "[9]", "value": "about 1/10"}]}, {"smiles": "Nc1nc2ccc(OC(F)(F)F)cc2s1", "note": "[riluzole]", "values": [{"measurement": "benefit in major depression", "setting": "[3]; Zarate et al 2004", "value": "beneficial"}]}, {"smiles": "OC(CCN1CCCC1)(c1ccccc1)C1CCCCC1", "note": "(stereo not shown) [procyclidine]", "values": [{"measurement": "relief for neuropathic pain", "setting": "[7]; animal models, reported in journals", "value": "offers relief for neuropathic pain"}]}, {"smiles": "[N-]=[N+]=O", "note": "[nitrous oxide]", "values": [{"measurement": "time after which irreversible changes inside animal brains begin to manifest", "setting": "[10]", "value": "about 8 hours"}]}, {"smiles": "CN1CCN(C2=Nc3cc(F)ccc3Cc3ccccc32)CC1", "note": "[fluperlapine]", "values": [{"measurement": "reduction of toxic side effects of MK-801 and PCP", "setting": "[2]; tests on rats", "value": "reduce the toxic side effects"}]}, {"smiles": "CNC1(c2ccccc2Cl)CCCCC1=O", "note": "(racemic) [ketamine]", "values": [{"measurement": "relief from depressive symptoms", "setting": "[3]; intravenous infusion for 40 minutes, small group (Berman et al 2000)", "value": "transient but significant relief"}, {"measurement": "relief from depressive symptoms", "setting": "[3]; prolonged subanesthetic intravenous infusion up to 4 days, 2 patients (Correll et al 2005)", "value": "rapid and lasting relief"}, {"measurement": "time to relief from depressive symptoms after infusion", "setting": "[3]; single 40 minute intravenous infusion, treatment resistant depression (Zarate et al 2006b)", "value": "less than 2 hours"}, {"measurement": "duration of remission of symptoms", "setting": "[3]; single 40 minute intravenous infusion, significant number of patients (Zarate et al 2006b)", "value": "up to a week"}, {"measurement": "side effects", "setting": "[11]; continuous subcutaneous infusion, one patient (Backonja et al 1994)", "value": "intolerable cognitive and memory side effects"}, {"measurement": "side effects", "setting": "[11]; single-dosage injections, six patients (Backonja et al 1994)", "value": "mild and well tolerated"}, {"measurement": "side effects", "setting": "[11]; subcutaneous injections over 7 days and nights (Eide et al 1995)", "value": "intolerable side effects"}, {"measurement": "potency relative to phencyclidine (from ED100 numbers)", "setting": "[9]; fraction of phencyclidine potency", "value": "about 1/10"}, {"measurement": "vacuole-forming ED100 dosage", "setting": "[9]", "value": 40, "unit": "mg/kg"}, {"measurement": "potency relative to MK-801 (from ED100 numbers)", "setting": "[9]", "value": "about 1/100"}]}, {"smiles": "N=C(N)N/N=C/c1c(Cl)cccc1Cl", "note": "[guanabenz]", "values": [{"measurement": "neurotoxic effects of NMDA antagonists in animals", "setting": "[2]", "value": "suppressed or prevented"}, {"measurement": "psychotomimetic effects of NMDA antagonists in humans", "setting": "[6]", "value": "suppressed or prevented"}]}, {"smiles": "CN(C)CCC=C1c2ccccc2CCc2ccccc21", "note": "[amitriptyline]", "values": [{"measurement": "neuropathic pain-relieving activity", "setting": "[12]; animal models, administered by itself", "value": "neuropathic pain-relieving activity"}, {"measurement": "effect on neuropathic pain-relieving activity of memantine", "setting": "[12]; coadministered with memantine", "value": "potentiated"}, {"measurement": "safening activity against neurotoxic side effects of MK-801", "setting": "[1]; coadministered with MK-801, unpublished experiments", "value": "substantial safening activity"}]}, {"smiles": "Nc1nnc(-c2cccc(Cl)c2Cl)c(N)n1", "note": "[lamotrigine]", "values": [{"measurement": "neurotoxic effects of NMDA antagonists in animals", "setting": "[2]", "value": "suppressed or prevented"}, {"measurement": "psychotomimetic effects of NMDA antagonists in humans", "setting": "[6]", "value": "suppressed or prevented"}]}]}
